Measured values published in publication PMC10714400, “Antimicrobial Peptide–Peptoid Hybrids with and without Membrane Disruption” (ACS Infectious Diseases, 2023).
In brackets after ≈: the same amount, converted by molar mass. Read-outs that look alike come from different tables or passages of the source. Where a SMILES comes first, the peptide text is derived from it. [ ]: non-standard residue; d: D form. Nleu = CC(C)CNCC(=O)O; Nlys = NCCCCNCC(=O)O

Legend:
[1] = system: human red blood cells (hRBC); experiment: Minimum hemolytic concentration (MHC); format: cell-based
From the text: We also measured minimal hemolysis concentrations (MHC) on human red blood cells by serial 2-fold dilution as an indication of toxicity against eukaryotic cells (Table 1).

S. aureus COL (MRSA) = system: S. aureus COL (MRSA)
Protocol: (§1) Antimicrobial activity was assayed for all the peptide–peptoids against P. aeruginosa PAO1, K. pneumoniae NCTC418, E. coli W3110, A. baumannii ATCC 19606, methicillin-resistant S. aureus COL (MRSA), and for selected peptides on P. aeruginosa PA14 and the polymyxin-B-resistant derivatives PA14 4.13, PA14 4.18, PA14 2P4, as well as the clinical isolates ZEM-1A and ZEM9A, K. pneumoniae OXA-48, S. aureus Newman, Enterobacter cloacae, Stenotrophomonas maltophilia, Burkholderia cenocepacia, and Staphylococus epidermidis. To determine the Minimal Inhibitory Concentration (MIC), the Broth Microdilution method was used.[72] A colony of bacteria was picked and grown in LB medium overnight at 37 °C.
(§2) To each well was finally added 4 μL of the diluted bacterial suspension (see above), corresponding to approximately 5 × 10^5 CFU. For each test, two columns of the plate were kept for sterility control (medium only), growth control (medium with bacterial inoculum, no compound). The positive control, Polymyxin B (starting with a concentration of 16 μg/mL) in MH medium with bacterial inocula, was introduced in the two lines of the plate. The plates were incubated at 37 °C for ca. 18 h under static conditions. Next, 15 μL of 3-(4,5-dimethylthiazol-2-yl)-2,5-diphenyltetrazolium bromide (MTT)[73] (1 mg/mL in sterilized MilliQ deionized water) were added to each well, and the plates were incubated for 20–30 min at room temperature. The minimal inhibitory concentration (MIC) was defined as the lowest concentration of the compound that inhibits the visible growth of the tested bacteria (yellow) with the unaided eye.

E. coli W3110 = system: E. coli W3110
Protocol: as §1, §2

A. baumannii ATCC19606 = settings: for MIC A. baumannii ATCC19606, full MH at pH 7.4 / MIC A. baumannii ATCC19606, full MH at pH 8.5: ATCC19606, 4 h
Protocol: as §1, §2

K. pneumoniae NCTC418 = system: K. pneumoniae NCTC418
Protocol: as §1, §2

PA14 2P4 (pmrB) = settings: CSV; […] MH at pH 8.5
Protocol: as §1, §2

PA14 4.18 (pmrB) = settings: CSV; […] MH at pH 8.5
Protocol: as §1, §2

PA14 4.13 (phoQ) = settings: […] MH at pH 8.5; for MIC P. aeruginosa PA14 4.13, […] MH at pH 8.5: CSV
Protocol: as §1, §2

P. aeruginosa PAO1 = settings: for MIC P. aeruginosa PAO1, full MH at pH 7.4 / MIC P. aeruginosa PAO1, full MH at pH 8.5: PAO1, 4 h
Protocol: as §1, §2

[2] = Circular dichroism, α-helical content; format: physicochemical; settings: 0.1 mg/mL; for CD %α with 5 mM DPC: 10 mM phosphate buffer pH 7.4, 5 mM DPC; for CD %α with 20% TFE: 10 mM phosphate buffer pH 7.4, 20% TFE
P. aeruginosa PA14 = settings: Table S3; […] MH at pH 8.5, 16-20 hours at 37 °C
Protocol: as §1
as §2, with “The plates were incubated at 37 °C for ca. 18 h under static conditions.” left out

S. aureus Newman = settings: Table S3; […] MH at pH 8.5
Protocol: as §1
as §2, with “The plates were incubated at 37 °C for ca. 18 h under static conditions.” left out

## CC(C)C[C@H](NC(=O)[C@H](CC(C)C)NC(=O)[C@H](CC(C)C)NC(=O)CN(CCCCN)C(=O)[C@H](CC(C)C)NC(=O)[C@H](CC(C)C)NC(=O)CN(CCCCN)C(=O)[C@H](CC(C)C)NC(=O)[C@H](CC(C)C)NC(=O)CN(CCCCN)C(=O)CNCCCCN)C(N)=O [EB7, kkLLkLLkLLL] (H-[Nlys][Nlys]LL[Nlys]LL[Nlys]LLL-NH2)
[1]
  Hemolysis: none of them showed any measurable hemolysis
  MHC: >2000 µg/mL
S. aureus COL (MRSA); COL, 4 h, pH 7.4
  MIC S. aureus COL (MRSA), full MH at pH 7.4: >32 ug/mL
S. aureus COL (MRSA); COL, 4 h, pH 8.5
  MIC S. aureus COL (MRSA) Full MH 8.5: 4 to 8 µg/mL
  MIC S. aureus COL (MRSA), full MH at pH 8.5: 6 ug/mL
S. aureus COL (MRSA); COL, pH 7.4
  MIC S. aureus COL (MRSA) Full: >32 µg/mL
E. coli W3110; CSV
  MIC E. coli W3110, […] MH at pH 7.4: 4 ug/mL
  MIC E. coli W3110, […] MH at pH 8.5: 1 ug/mL
  MIC E. coli W3110, full MH at pH 7.4: 16 ug/mL
E. coli W3110; CSV, full MH at pH 8.5
  MIC E. coli W3110, full MH at pH 8.5: 4 ug/mL
E. coli W3110; diluted MH ([…] MH, pH 8.5) per Table 1 footnote b, 16–20 h at 37 °C
  MIC E. coli W3110 […]: 4 µg/mL (≈ 3.03 µM)
E. coli W3110; full MH, pH 7.4, 16–20 h at 37 °C
  MIC E. coli W3110 Full: 16 µg/mL (≈ 12.1 µM)
A. baumannii ATCC19606; pH 7.4
  MIC A. baumannii ATCC19606, full MH at pH 7.4: >32 ug/mL
A. baumannii ATCC19606; pH 8.5
  MIC A. baumannii ATCC19606, full MH at pH 8.5: 4 ug/mL
A. baumannii ATCC19606; ATCC19606, pH 7.4
  MIC A. baumannii ATCC19606 Full: >32 µg/mL
K. pneumoniae NCTC418; NCTC418, 4 h, pH 7.4
  MIC K. pneumoniae NCTC418, full MH at pH 7.4: >32 ug/mL
K. pneumoniae NCTC418; NCTC418, 4 h, pH 8.5
  MIC K. pneumoniae NCTC418, full MH at pH 8.5: 4 ug/mL
PA14 2P4 (pmrB)
  MIC P. aeruginosa PA14 2P4, […] MH at pH 8.5: 16 ug/mL
PA14 4.18 (pmrB)
  MIC P. aeruginosa PA14 4.18, […] MH at pH 8.5: 8 ug/mL
PA14 4.13 (phoQ)
  MIC P. aeruginosa PA14 4.13, […] MH at pH 8.5: 4 ug/mL
P. aeruginosa PAO1; pH 7.4
  MIC P. aeruginosa PAO1, full MH at pH 7.4: 32 ug/mL
P. aeruginosa PAO1; pH 8.5
  MIC P. aeruginosa PAO1, full MH at pH 8.5: 8 ug/mL

## CC(C)C[C@H](NC(=O)[C@H](CC(C)C)NC(=O)[C@H](CCCCN)NC(=O)[C@@H](N)CCCCN)C(=O)N[C@@H](CCCCN)C(=O)N[C@@H](CC(C)C)C(=O)N[C@@H](CC(C)C)C(=O)N[C@@H](CCCCN)C(=O)N(CC(=O)N(CC(=O)N(CC(N)=O)CC(C)C)CC(C)C)CC(C)C [EB3] (H-KKLLKLLK[Nleu][Nleu][Nleu]-NH2)
[2]; DichroWeb, Contin-LL
  CD %α with 5 mM DPC: 13%
  CD %α with 20% TFE: 15%
[2]; Table S2
  CD %α with 5 mM DPC: 13%
  CD %α with 20% TFE: 15%
[1]
  Hemolysis: none of them showed any measurable hemolysis
  MHC: >2000 µg/mL
S. aureus COL (MRSA); COL, 4 h, pH 7.4
  MIC S. aureus COL (MRSA), full MH at pH 7.4: >32 ug/mL
S. aureus COL (MRSA); COL, 4 h, pH 8.5
  MIC S. aureus COL (MRSA), full MH at pH 8.5: 32 ug/mL
S. aureus COL (MRSA); Table S2, […] MH, pH 7.4
  MIC S. aureus COL (MRSA) […] 7.4: 32 µg/mL (≈ 24.2 µM)
S. aureus COL (MRSA); Table S2, […] MH, pH 8.5
  MIC S. aureus COL (MRSA) […] 8.5: 8 µg/mL (≈ 6.05 µM)
S. aureus COL (MRSA); Table S2, full MH, pH 7.4
  MIC S. aureus COL (MRSA) Full MH 7.4: > 32 µg/mL
S. aureus COL (MRSA); Table S2, full MH, pH 8.5
  MIC S. aureus COL (MRSA) Full MH 8.5: 32 µg/mL (≈ 24.2 µM)
E. coli W3110; CSV
  MIC E. coli W3110, […] MH at pH 7.4: 4 ug/mL
  MIC E. coli W3110, […] MH at pH 8.5: 3 ug/mL
  MIC E. coli W3110, full MH at pH 7.4: >32 ug/mL
E. coli W3110; Table S2, […] MH, pH 7.4
  MIC E. coli W3110 […] 7.4: 4 µg/mL (≈ 3.03 µM)
E. coli W3110; Table S2, […] MH, pH 8.5
  MIC E. coli W3110 […] 8.5: 2 to 4 µg/mL
E. coli W3110; Table S2, full MH, pH 7.4
  MIC E. coli W3110 Full MH 7.4: > 32 µg/mL
E. coli W3110; Table S2, full MH, pH 8.5
  MIC E. coli W3110 Full MH 8.5: 16 µg/mL (≈ 12.1 µM)
A. baumannii ATCC19606; pH 7.4
  MIC A. baumannii ATCC19606, full MH at pH 7.4: >32 ug/mL
A. baumannii ATCC19606; pH 8.5
  MIC A. baumannii ATCC19606, full MH at pH 8.5: >32 ug/mL
A. baumannii ATCC19606; Table S2, […] MH, pH 7.4
  MIC A. baumannii ATCC19606 […] 7.4: 32 µg/mL (≈ 24.2 µM)
A. baumannii ATCC19606; Table S2, […] MH, pH 8.5
  MIC A. baumannii ATCC19606 […] 8.5: 16 µg/mL (≈ 12.1 µM)
A. baumannii ATCC19606; Table S2, full MH, pH 7.4
  MIC A. baumannii ATCC19606 Full MH 7.4: > 32 µg/mL
A. baumannii ATCC19606; Table S2, full MH, pH 8.5
  MIC A. baumannii ATCC19606 Full MH 8.5: > 32 µg/mL
K. pneumoniae NCTC418; NCTC418, 4 h, pH 7.4
  MIC K. pneumoniae NCTC418, full MH at pH 7.4: >32 ug/mL
K. pneumoniae NCTC418; Table S2, […] MH, pH 7.4
  MIC K. pneumoniae NCTC418 […] 7.4: > 32 µg/mL
K. pneumoniae NCTC418; Table S2, […] MH, pH 8.5
  MIC K. pneumoniae NCTC418 […] 8.5: 16 µg/mL (≈ 12.1 µM)
K. pneumoniae NCTC418; Table S2, full MH, pH 7.4
  MIC K. pneumoniae NCTC418 Full MH 7.4: > 32 µg/mL
K. pneumoniae NCTC418; Table S2, full MH, pH 8.5
  MIC K. pneumoniae NCTC418 Full MH 8.5: 32 µg/mL (≈ 24.2 µM)
PA14 2P4 (pmrB)
  MIC P. aeruginosa PA14 2P4, […] MH at pH 8.5: 16 ug/mL
PA14 4.18 (pmrB)
  MIC P. aeruginosa PA14 4.18, […] MH at pH 8.5: 8 ug/mL
PA14 4.13 (phoQ)
  MIC P. aeruginosa PA14 4.13, […] MH at pH 8.5: 6 ug/mL
PA14 4.13 (phoQ); Table S3
  MIC P. aeruginosa PA14 4.13: 4 to 8 µg/mL
P. aeruginosa PAO1; pH 7.4
  MIC P. aeruginosa PAO1, full MH at pH 7.4: >32 ug/mL
P. aeruginosa PAO1; pH 8.5
  MIC P. aeruginosa PAO1, full MH at pH 8.5: 16 ug/mL
P. aeruginosa PAO1; Table S2, […] MH, pH 7.4
  MIC P. aeruginosa PAO1 […] 7.4: 16 µg/mL (≈ 12.1 µM)
P. aeruginosa PAO1; Table S2, […] MH, pH 8.5
  MIC P. aeruginosa PAO1 […] 8.5: 4 µg/mL (≈ 3.03 µM)
P. aeruginosa PAO1; Table S2, full MH, pH 7.4
  MIC P. aeruginosa PAO1 Full MH 7.4: > 32 µg/mL
P. aeruginosa PAO1; Table S2, full MH, pH 8.5
  MIC P. aeruginosa PAO1 Full MH 8.5: 16 µg/mL (≈ 12.1 µM)
P. aeruginosa PA14
  MIC P. aeruginosa PA14: 4 µg/mL (≈ 3.03 µM)
S. aureus Newman
  MIC S. aureus Newman: 4 µg/mL (≈ 3.03 µM)
